BindingDB's records for doi:10.1021/jm3016848 (Ikerchem, 2013)

Assay: Inhibition of LFA-1/ICAM-1 interaction in mouse Lim51b cells assessed as PMA-induced adhesion to ICAM-1 expressing HSE cells measured per 10^5 cells after 30 mins by fluorometric microplate reader analysis

IC50: 27.6 µM
SMILES: CC[C@H](C)[C@H](OCc1ccccc1)[C@H]1[C@H]([N+](=O)[O-])[C@H](c2ccccc2)N[C@]1(C)C(=O)NCCC(=O)O
